Source: patent US11839613B2, “Pyrimidine derivatives as PGE2 receptor modulators” (IDORSIA PHARMACEUTICALS LTD, priority 2017, dated 2023)

Assays:
PTGER2 (EP2) = PTGER2 (EP2) (Homo sapiens (Human), UniProt P43116); test: hEP2 b-arrestin assay (PathHunter HEK 293 PTGER2 b-arrestin cells); assay type: cell-based; conditions: antagonistic activity, beta-arrestin assay; read-out: hEP2 b-arr IC50
Experimental: Plate is pre-incubated 15 minutes at 37° C. Then five microliters of PGE2 (final conc. 5 μM) are transferred into the assay plate. Plate is incubated 120 minutes at 37° C.
(each concentration is measured in duplicate)

EP4 = EP4 (Homo sapiens (Human), UniProt P35408); test: hEP4 cAMP assay (BT549 breast cancer cells, HTRF cAMP); assay type: cell-based; conditions: antagonistic activity, PGE2 6 nM
Sequence of EP4 (P35408 whole entry): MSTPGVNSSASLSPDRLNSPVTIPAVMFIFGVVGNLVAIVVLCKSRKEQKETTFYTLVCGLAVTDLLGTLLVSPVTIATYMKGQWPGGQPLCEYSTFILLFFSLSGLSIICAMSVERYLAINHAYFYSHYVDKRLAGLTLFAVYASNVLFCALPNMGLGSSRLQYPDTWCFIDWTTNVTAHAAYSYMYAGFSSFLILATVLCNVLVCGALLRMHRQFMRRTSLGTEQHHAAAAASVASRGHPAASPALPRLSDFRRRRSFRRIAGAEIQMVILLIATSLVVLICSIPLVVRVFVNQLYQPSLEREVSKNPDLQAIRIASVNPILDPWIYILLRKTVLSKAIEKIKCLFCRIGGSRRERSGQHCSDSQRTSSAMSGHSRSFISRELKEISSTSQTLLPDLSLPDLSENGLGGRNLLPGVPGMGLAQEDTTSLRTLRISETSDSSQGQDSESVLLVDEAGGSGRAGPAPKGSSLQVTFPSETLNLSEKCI
Method in brief: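 BT549 breast cancer cells (endogenous EP4) in HBSS/20 mM HEPES/0.2% BSA/2 mM IBMX preincubated 45 min at RT with compound, then stimulated 30 min at RT with 6 nM PGE2 (final). cAMP read by competitive HTRF immunoassay, signal inversely proportional to cAMP.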

PTGER4 (EP4) = PTGER4 (EP4) (Homo sapiens (Human), UniProt P35408)
Sequence of PTGER4 (EP4) (P35408 whole entry): as above

EP2 = EP2 (Homo sapiens (Human), UniProt P43116); test: hEP2 cAMP assay (SF295 glioblastoma cells, HTRF cAMP); assay type: cell-based; conditions: antagonistic activity
Sequence of EP2 (P43116 whole entry): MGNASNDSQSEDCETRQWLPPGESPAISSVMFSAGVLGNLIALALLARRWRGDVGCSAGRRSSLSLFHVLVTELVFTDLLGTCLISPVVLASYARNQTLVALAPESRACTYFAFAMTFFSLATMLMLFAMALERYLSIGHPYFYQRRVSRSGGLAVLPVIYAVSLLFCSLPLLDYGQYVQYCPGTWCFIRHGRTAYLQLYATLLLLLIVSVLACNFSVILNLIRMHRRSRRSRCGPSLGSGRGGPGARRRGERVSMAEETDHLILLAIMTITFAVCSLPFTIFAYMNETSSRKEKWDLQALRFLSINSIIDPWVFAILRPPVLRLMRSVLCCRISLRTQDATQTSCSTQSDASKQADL
Method in brief: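 PGE2-driven cAMP accumulation was measured by HTRF in SF295 cells, which express endogenous EP2 only. Cells in assay buffer with 2 mM IBMX were pre-incubated 45 min at RT, then incubated 30 min at RT. Detection used competition between cellular cAMP and d2-cAMP for a cryptate anti-cAMP antibody.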

Sequence of PTGER2 (EP2) (P43116 whole entry): as above

Row | Compound | IC50 (PTGER2 (EP2)) [nM] | IC50 (EP4) [nM] | IC50 (PTGER4 (EP4)) [nM] | IC50 (EP2) [nM]
1 | CCOc1cc2sccc2cc1CCNc1cc(-c2ccc(C(=O)O)c(OCC)c2)ncn1 [Ex 126] | 8 | 101 | 66 | 6
2 | CCOc1cc(-c2cc(NCCc3ccc4c(c3)COC4)ncn2)sc1C(=O)O [Ex 164] | 269 | 163 | 93 | 149
3 | CCOc1cc2sccc2cc1CCNc1cc(-c2ccc(OCC(=O)O)c(OCC)c2)ncn1 [Ex 53] | 5 | 25 | 12 | 12
4 | CCOc1cc(-c2cc(NCCc3cc4ccsc4cc3OC)ncn2)ccc1C(=O)O [Ex 109] | 34 | 78 | 101 | 12
5 | CCOc1cc(-c2cc(NCCc3cc(F)c4c(c3)OCCO4)ncn2)sc1C(=O)O [Ex 35] | 359 | 18 | 23 | 194
6 | CSc1cc(-c2cc(NCCc3cc4ccsc4cc3C#N)ncn2)ccc1C(=O)O [Ex 77] | 47 | 43 | 154 | 25
7 | CCOc1cc(-c2cc(NCCc3ccc4c(c3)CCS4)ncn2)sc1C(=O)O [Ex 15] | 177 | 8 | 12 | 28
8 | COc1cc2ccccc2c(F)c1CCNc1cc(-c2ccc(CC(=O)O)c(SC)c2)ncn1 [Ex 115] | 243 | 85 | 53 | 682
9 | CSc1cc(-c2cc(NCCc3c(C#N)cc4ccccc4c3C)ncn2)ccc1C(=O)O [Ex 52] | 318 | 25 | 63 | 158
10 | CCOc1cc(-c2cc(NCCc3cc4cccnc4c(F)c3Cl)ncn2)sc1C(=O)O [Ex 117] | 53 | 88 | 131 | 61
11 | COc1cc2sccc2cc1CCNc1cc(-c2ccc(C(=O)O)c(OC3CCC3)c2)ncn1 [Ex 63] | 16 | 33 | 50 | 12
12 | CCOc1cc(-c2cc(NCCc3c(F)cc4ncccc4c3F)ncn2)sc1C(=O)O [Ex 43] | 54 | 21 | 44 | 43
13 | CCOc1cc(-c2cc(NCCc3c(OC)cc4ccccc4c3C)ncn2)sc1C(=O)O [Ex 1] | 6 | 1 | 2 | 8
14 | CCOc1cc(-c2cc(NCCc3cc4c(cc3OC)OCCO4)ncn2)sc1C(=O)O [Ex 26] | 19 | 16 | 22 | 19
15 | CCOc1cc2ccccc2cc1CCNc1cc(-c2ccc(OCC(=O)O)c(OCC)c2)ncn1 [Ex 160] | 35 | 158 | 24 | 93
16 | CCOc1cc(-c2cc(NCCc3ccc4scc(C#N)c4c3)ncn2)sc1C(=O)O [Ex 27] | 75 | 17 | 16 | 19
17 | CCOc1cc(-c2cc(NCCc3ccc4c(c3)CCO4)ncn2)sc1C(=O)O [Ex 114] | 222 | 85 | 640 | 222
18 | CCOc1cc(-c2cc(NCCc3ccc4sccc4c3C)ncn2)sc1C(=O)O [Ex 20] | 27 | 12 | 74 | 11
19 | COc1cc2ccccc2c(C)c1CCNc1cc(-c2ccc(C(=O)O)c(OC3CCC3)c2)ncn1 [Ex 79] | 43 | 44 | 56 | 83
20 | CCOc1cc(-c2cc(NCCc3ccc4sccc4c3)nc(C)n2)sc1C(=O)O [Ex 96] | 148 | 61 | 92 | 57
21 | CSc1cc(-c2cc(NCCc3cc4c(cc3C#N)OCCO4)ncn2)ccc1C(=O)O [Ex 97] | 192 | 63 | 147 | 78
22 | CCOc1cc(-c2cc(NCCc3c(C#N)cc4ccccc4c3F)ncn2)ccc1C(=O)O [Ex 73] | 809 | 39 | 91 | 1770
23 | C#Cc1c(CCNc2cc(-c3cc(OCC)c(C(=O)O)s3)ncn2)ccc2ccccc12 [Ex 17] | 108 | 9 | 8 | 171
24 | CCOc1cc(-c2cc(NCCc3cc4c(cc3C#N)OCO4)ncn2)sc1C(=O)O [Ex 64] | 25 | 33 | 41 | 28
25 | COc1cc2ccccc2c(C)c1CCNc1cc(-c2ccc(CC(=O)O)c(SC)c2)ncn1 [Ex 163] | 85 | 158 | 98 | 246

Other lines, results leading:

Row | IC50 (PTGER2 (EP2)) [nM] | IC50 (EP4) [nM] | IC50 (PTGER4 (EP4)) [nM] | IC50 (EP2) [nM] | Compound
26 | 388 | 335 | 908 | 160 | CSc1cc(-c2cc(NCCc3ccc4scnc4c3)ncn2)ccc1C(=O)O [Ex 237]
27 | 57 | 653 | 1350 | 232 | CSc1cc(-c2cc(NCCc3cc4ccsc4cc3C)ncn2)ccc1CC(=O)O [Ex 305]
28 | 25 | 342 | 688 | 47 | Cc1c(CCNc2cc(-c3ccc(C(=O)O)c(OC4CCC4)c3)ncn2)ccc2sccc12 [Ex 268]
29 | 1640 | 434 | 588 | 6510 | CCOc1cc(-c2cc(NCCc3ccc4cccc(F)c4c3)ncn2)ccc1C(=O)O [Ex 269]
30 | 493 | 355 | 147 | 2100 | CSc1cc(-c2cc(NCCc3ccc4cccc(F)c4c3)ncn2)ccc1C(=O)O [Ex 243]
31 | 255 | 253 | 340 | 50 | CSc1cc(-c2cc(NCCc3ccc4scc(C#N)c4c3)ncn2)ccc1C(=O)O [Ex 212]
32 | 144 | 525 | 964 | 358 | CCOc1cc(-c2cc(NCCc3ccc4sccc4c3C)ncn2)ccc1CC(=O)O [Ex 289]
33 | 409 | 90 | 88 | 269 | CCOc1cc(-c2cc(NCCc3cc4ccccc4c(F)c3OC)ncn2)ccc1C(=O)O [Ex 174]
34 | 3460 | 701 | 378 | 9230 | CCOc1cc(-c2cc(NCCc3ccc4cccc(F)c4c3)ncn2)ccc1CC(=O)O [Ex 314]
35 | 521 | 373 | 671 | 158 | CCOc1cc(-c2cc(NCCc3ccc4scc(C#N)c4c3)ncn2)ccc1C(=O)O [Ex 253]
36 | 12 | 186 | 633 | 29 | CSc1cc(-c2cc(NCCc3ccc4sccc4c3C)ncn2)ccc1C(=O)O [Ex 204]
37 | 83 | 181 | 62 | 120 | CCOc1cc2ccccc2cc1CCNc1cc(-c2ccc(C(=O)O)c(OC3CCC3)c2)ncn1 [Ex 171]
